Test results from the OPERA property sets (Mansouri et al. 2018).

Structure (SMILES) | logP
O=c1nc(N=CN2CCOCC2)ccn1C1CCC(CO)O1 (stereo not given) | -0.97
CC(C)N(C=Nc1ccn(C2CC(F)C(CO)O2)c(=O)n1)C(C)C (stereo not given) | 1.14
Nc1ccn([C@H]2C[C@H](F)[C@@H](CO)O2)c(=O)n1 | -0.89
O=c1nc(N=CN2CCOCC2)ccn1C1CC(F)C(CO)O1 (stereo not given) | -0.68
O=c1nc(N=CN2CCCC2)ccn1C1CC(F)C(CO)O1 (stereo not given) | -0.16
O=c1nc(/N=C/N2CCCCC2)ccn1[C@H]1C[C@H](F)[C@@H](CO)O1 | 0.36
CCCN(C=Nc1ccn(C2CC(F)C(CO)O2)c(=O)n1)CCC (stereo not given) | 1.35
O=c1nc(/N=C/N2CCCCC2)ccn1[C@H]1CC[C@@H](CO)O1 | 0.06
CN(C)C=Nc1ccn(C2CC(F)C(CO)O2)c(=O)n1 (stereo not given) | -0.64

The next lines start with the values.

logP | Structure (SMILES)
-0.95 | CN(C)C=Nc1ccn(C2CCC(CO)O2)c(=O)n1 (stereo not given)
-0.47 | O=c1nc(N=CN2CCCC2)ccn1C1CCC(CO)O1 (stereo not given)
0.72 | CC(C)N(C=Nc1ccn(C2CCC(CO)O2)c(=O)n1)C(C)C (stereo not given)
0.95 | CCCN(/C=N/c1ccn([C@H]2CC[C@@H](CO)O2)c(=O)n1)CCC
-0.06 | CCN(/C=N/c1ccn([C@H]2CC[C@@H](CO)O2)c(=O)n1)CC
0.23 | CCN(C=Nc1ccn(C2CC(F)C(CO)O2)c(=O)n1)CC (stereo not given)
